# Test results taken from patent US11377423B2, “Inhibitors of histone deacetylase” (The Broad Institute, Inc., priority 2012, dated 2022).
# Several values for one entry are separate records, joined by “and”; a condition that tells them apart may be missing. Equal entries are not always repeated. Where two headings read alike, the source gives them in different places.
# Assays:
# dopaminergic signaling = experiment: Amphetamine-induced hyperactivity (AIH); assay type: in vivo; conditions: mice, 10 mg/kg once daily, data 18-24 h after the 7th dose
# Protocol: Compounds of the invention were evaluated for their ability to influence dopaminerigic signaling according to the following procedure. Mice were dosed once daily with 10 mg/kg of compound 1. Data collected 18-24 h after the 7th dose. Amphetamine-induced hyperactivity (AIH) was examined in eight identical open-field chambers (16.5″×16″×12″; AccuScan Instruments, Columbus, Ohio). Activity was detected by infrared beam breaks and recorded automatically by VersaMax software (AccuScan). Daily sessions were automatically binned in 5 minute intervals (VersaDat; AccuSacn) for statistical analysis. AIH was run over three consecutive days as follows:
# Day 1: Habituation: Mice were placed into the open-field for 20 minutes and then removed for a saline injection. Mice were placed back into the open-field for an additional 30 minutes, at which point the mice were returned to their home cage.
# Day 2: Baseline Motor Activity: This phase was run identically to Day 1, with the exception that the second day lasted for one hour (20 minutes pre-injection; 40 minutes post-injection).
# Day 3: Amphetamine Challenge: Mice were placed in the open-field. After 20 minutes, mice were removed and challenged with amphetamine, and placed back in the open-field for 80 minutes.
# **Note: All HDAC inhibitor treatments occurred 18-25 hours prior to behavioral testing. […]
# HDAC9 = HDAC9 (Homo sapiens (Human), UniProt Q9UKV0); experiment: Caliper HDAC enzymatic endpoint assay, HDAC9; assay type: biochemical; conditions: Table 2C; read-out: HDAC9 IC50 after 0 hr preincubation
# Protocol: (§1) The Caliper HDAC Assay Buffer (acronym HAB, 1 liter) was prepared as follows:
# (§2) Substrate B was prepared as 2 mM in 100% DMSO. Its final concentration in the assay for HDACs 4, 5, 7, 8, 9 is 2 μM.
# (§3) LBH was used as quench inhibitor to stop the reaction at the end point.
# IC50 values are in micromolar.
# [1] = Brain and plasma concentration in mice; assay type: in vivo; conditions: for half-life: mouse, other: injected (site of injection not given)
# Protocol: Specifically, mice were injected with a single dose of compound and the concentration of compound was measured in the brain and plasma of mice at 8 time points. The samples were analyzed by LC-MS/MS.
# HDAC5 = HDAC5 (Homo sapiens (Human), UniProt Q9UQL6); experiment: Caliper HDAC enzymatic endpoint assay, HDAC5; assay type: biochemical; conditions: Table 2C; read-out: HDAC5 IC50 after 0 hr preincubation
# Protocol: as §1, §2, §3
# IC50 values are in micromolar.
# HDAC2 = HDAC2 (Homo sapiens (Human), UniProt Q92769); experiment: Kinetics of the inhibition of HDAC2
# INS-1E cells [2] = experiment: ROS formation (CM-H2DCFDA probe); assay type: cell-based, rat; conditions: 10 μM, GLT, 48 hrs
# Protocol: INS-1E cells (50,000 cells/well) were seeded in 96-well plates in 100 uL complete medium. Two days after incubation, medium was removed and cells exposed to 100 uL medium/well with the indicated concentrations of palmitate, glucose, test compounds and/or vehicle. After 24 hours, cells were aspirated and incubated for 45 min in phenol […] RPMI (Invitrogen) containing 10 μM CM-H2DCFDA probe (Molecular Probes). Wells were subsequently washed twice with phenol red-free RMPI, incubated for 3 min with Hoechst 33342 (10 ug/mL) in phenol red-free media, followed by a final washing step. Fluorescence was captured by an IX Micro automated fluorescence microscope (Molecular Devices) and quantification of ROS per cell was analyzed using MetaXpress software (Molecular Devices). Each condition was assayed in five biological replicates. Glucolipotoxicity causes oxidative stress in β cells via increased ROS formation from mitochondria. […] ROS formation per cell (48 hrs) was measured using the CM-H2DCFDA probe and Hoechst staining. Data are presented as fold to CTRL+SEM n=3-4, ns=not significant, **p<0.01, ***p<0.001 vs unexposed cells; #p<0.05, ##p<0.01, vs. GLT treated cells, ANOVA with Tukey corrected test.
# INS-1E cells [3] = experiment: ER stress / UPR markers by qPCR and immunoblotting; assay type: cell-based, rat; conditions: 10 μM, GLT
# Protocol: INS-1E cells (one million/well) were seeded in 6-well plates in 2 mL complete medium. After two days, medium was removed and cells were exposed to 2 mL medium/well with the indicated concentrations of palmitate, glucose, HDAC inhibitors and/or vehicle. RNA was purified (Qiagen) and cDNA synthesis performed done according to manufacturers' guidelines (Applied Biosystems) and real-time PCR performed using the SYBR green method (Applied Biosystems). Each cDNA sample in triplicate was subjected to two individual PCR amplifications either for the gene of interest or the reference gene β-actin. See table below for primer sequences. INS-1E cells (one million/well) were seeded in 6-well plates in 2 mL complete medium. After two days, medium was removed and cells were exposed to 2 mL medium/well with the indicated concentrations of palmitate, glucose, test compounds and/or vehicle. Cells were lysed using Passive Lysis Buffer (Promega) containing protease inhibitors (Roche). Lysates were adjusted for protein concentration (Bradford) and protein separated by SDS-PAGE and transferred to PVDF membranes. Blots were developed using a chemiluminescence detection system (SuperSignal, Thermo Fisher Scientific), and light emission was captured using an Imaging Station 4000MM (Carestream). […] Gene expressions (vehicle=open bars, compound 1=light grey bars, GLT=black bars, GLT and compound 1=dark grey bars) were analyzed by qPCR (FIGS. 14A, 14B, 14D, 14E, and 14F) and protein levels (FIGS. 14C and 14G) (24 h) by immunoblotting. Representative blots are shown. Data are presented as fold to CTRL+SEM n=3-4, ns=not significant, *p<0.05, **p<0.01, ***p<0.001 vs unexposed cells; #p<0.05, ##p<0.01, ###p<0.001 vs. GLT treated cells, ANOVA with Tukey corrected test.
# HDAC7 = HDAC7 (Homo sapiens (Human), UniProt Q8WUI4); experiment: Caliper HDAC enzymatic endpoint assay, HDAC7; assay type: biochemical; conditions: Table 2C; read-out: HDAC7 IC50 after 0 hr preincubation
# Protocol: as §1, §2, §3
# IC50 values are in micromolar.
# Rat islets = experiment: Glucolipotoxicity-induced apoptosis in rat islets, cell death ELISA; assay type: cell-based; conditions: 10 μM, 0.5 mM palmitate and 25 mM glucose, 60 h
# Protocol: Rat islets (50 islets/well) were cultured in 48-well plates (NUNC) and exposed to palmitate (0.5 mM) and glucose (25 mM) in medium supplemented with 1% FBS and 1% BSA for 60 hours. Cell death was determined in biological duplicates using a cell death ELISA assay (Roche).
# Compounds of the invention protect against combined palmitate and high glucose induced apoptosis in INS-1E cells. […] Apoptosis was measured by caspase-3 activity assay.
# [4] = mice, single dose, Repligen 136 30 mg/kg, Compound 1 10 mg/kg
# Chain of HDAC2 (Q92769 whole entry): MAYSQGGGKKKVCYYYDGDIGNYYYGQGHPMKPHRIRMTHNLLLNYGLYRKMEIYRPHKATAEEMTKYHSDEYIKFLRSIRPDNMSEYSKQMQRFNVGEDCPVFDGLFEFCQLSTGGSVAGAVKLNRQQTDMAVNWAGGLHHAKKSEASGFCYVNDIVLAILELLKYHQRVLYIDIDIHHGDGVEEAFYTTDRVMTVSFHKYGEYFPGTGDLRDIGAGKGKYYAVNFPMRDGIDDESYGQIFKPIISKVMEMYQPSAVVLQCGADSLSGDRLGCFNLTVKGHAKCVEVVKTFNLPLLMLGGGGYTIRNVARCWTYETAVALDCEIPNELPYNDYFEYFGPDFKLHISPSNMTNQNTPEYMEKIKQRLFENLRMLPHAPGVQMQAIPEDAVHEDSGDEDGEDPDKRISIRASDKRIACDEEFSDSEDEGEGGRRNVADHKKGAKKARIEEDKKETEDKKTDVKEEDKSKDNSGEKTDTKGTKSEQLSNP
# Chain of HDAC5 (Q9UQL6 whole entry): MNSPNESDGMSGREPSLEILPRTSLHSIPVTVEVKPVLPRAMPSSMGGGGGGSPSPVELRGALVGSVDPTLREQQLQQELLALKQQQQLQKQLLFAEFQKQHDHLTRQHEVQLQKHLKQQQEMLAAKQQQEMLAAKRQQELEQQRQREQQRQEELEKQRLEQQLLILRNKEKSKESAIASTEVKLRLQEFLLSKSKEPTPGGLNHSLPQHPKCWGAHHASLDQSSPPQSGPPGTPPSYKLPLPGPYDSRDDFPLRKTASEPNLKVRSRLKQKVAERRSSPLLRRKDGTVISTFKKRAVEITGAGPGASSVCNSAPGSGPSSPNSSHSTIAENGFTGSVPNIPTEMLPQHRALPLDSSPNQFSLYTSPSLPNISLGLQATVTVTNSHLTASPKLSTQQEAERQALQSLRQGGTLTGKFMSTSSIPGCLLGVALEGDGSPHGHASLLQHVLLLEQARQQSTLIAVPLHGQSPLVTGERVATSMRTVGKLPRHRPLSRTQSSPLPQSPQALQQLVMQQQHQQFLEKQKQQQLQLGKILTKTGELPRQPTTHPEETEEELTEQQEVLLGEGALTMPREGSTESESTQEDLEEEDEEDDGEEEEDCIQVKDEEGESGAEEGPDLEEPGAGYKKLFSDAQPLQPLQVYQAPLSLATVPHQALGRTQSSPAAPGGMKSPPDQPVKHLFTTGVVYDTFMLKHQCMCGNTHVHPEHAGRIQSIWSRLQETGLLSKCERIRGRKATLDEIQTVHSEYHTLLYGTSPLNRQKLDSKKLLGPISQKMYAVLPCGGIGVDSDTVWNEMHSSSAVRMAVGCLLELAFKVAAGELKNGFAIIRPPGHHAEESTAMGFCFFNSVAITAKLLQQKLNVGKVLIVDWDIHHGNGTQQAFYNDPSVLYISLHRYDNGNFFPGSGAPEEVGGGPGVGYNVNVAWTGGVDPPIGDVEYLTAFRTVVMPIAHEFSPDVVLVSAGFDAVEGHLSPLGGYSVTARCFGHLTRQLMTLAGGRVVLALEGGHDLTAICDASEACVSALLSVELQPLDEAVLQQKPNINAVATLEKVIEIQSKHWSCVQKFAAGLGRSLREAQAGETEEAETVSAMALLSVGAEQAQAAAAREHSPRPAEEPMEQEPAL
# Chain of HDAC7 (Q8WUI4 whole entry): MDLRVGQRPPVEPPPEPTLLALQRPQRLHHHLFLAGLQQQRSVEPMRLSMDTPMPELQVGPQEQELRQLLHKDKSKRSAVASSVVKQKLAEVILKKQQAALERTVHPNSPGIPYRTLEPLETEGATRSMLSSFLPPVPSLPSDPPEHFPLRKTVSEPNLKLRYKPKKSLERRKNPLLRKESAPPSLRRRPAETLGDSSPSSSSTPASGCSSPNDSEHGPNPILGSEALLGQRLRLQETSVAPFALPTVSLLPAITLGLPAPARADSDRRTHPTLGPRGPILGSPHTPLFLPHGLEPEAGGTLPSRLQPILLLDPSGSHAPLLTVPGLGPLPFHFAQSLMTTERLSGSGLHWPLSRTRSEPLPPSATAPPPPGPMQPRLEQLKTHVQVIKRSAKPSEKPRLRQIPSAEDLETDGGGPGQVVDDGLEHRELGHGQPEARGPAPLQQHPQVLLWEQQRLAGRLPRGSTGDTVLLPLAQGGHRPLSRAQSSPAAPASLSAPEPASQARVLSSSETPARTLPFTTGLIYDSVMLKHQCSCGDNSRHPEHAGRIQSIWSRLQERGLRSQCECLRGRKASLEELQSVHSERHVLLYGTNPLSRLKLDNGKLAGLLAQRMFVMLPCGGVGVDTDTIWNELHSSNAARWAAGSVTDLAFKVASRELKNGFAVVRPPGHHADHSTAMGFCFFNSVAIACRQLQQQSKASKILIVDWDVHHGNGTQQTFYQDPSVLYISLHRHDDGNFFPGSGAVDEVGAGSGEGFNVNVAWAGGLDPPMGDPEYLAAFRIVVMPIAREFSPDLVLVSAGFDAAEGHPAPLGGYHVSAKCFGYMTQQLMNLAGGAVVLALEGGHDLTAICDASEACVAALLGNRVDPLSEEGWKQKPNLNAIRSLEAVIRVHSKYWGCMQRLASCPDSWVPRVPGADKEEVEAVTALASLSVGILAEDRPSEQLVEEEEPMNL
# Chain of HDAC9 (Q9UKV0 whole entry): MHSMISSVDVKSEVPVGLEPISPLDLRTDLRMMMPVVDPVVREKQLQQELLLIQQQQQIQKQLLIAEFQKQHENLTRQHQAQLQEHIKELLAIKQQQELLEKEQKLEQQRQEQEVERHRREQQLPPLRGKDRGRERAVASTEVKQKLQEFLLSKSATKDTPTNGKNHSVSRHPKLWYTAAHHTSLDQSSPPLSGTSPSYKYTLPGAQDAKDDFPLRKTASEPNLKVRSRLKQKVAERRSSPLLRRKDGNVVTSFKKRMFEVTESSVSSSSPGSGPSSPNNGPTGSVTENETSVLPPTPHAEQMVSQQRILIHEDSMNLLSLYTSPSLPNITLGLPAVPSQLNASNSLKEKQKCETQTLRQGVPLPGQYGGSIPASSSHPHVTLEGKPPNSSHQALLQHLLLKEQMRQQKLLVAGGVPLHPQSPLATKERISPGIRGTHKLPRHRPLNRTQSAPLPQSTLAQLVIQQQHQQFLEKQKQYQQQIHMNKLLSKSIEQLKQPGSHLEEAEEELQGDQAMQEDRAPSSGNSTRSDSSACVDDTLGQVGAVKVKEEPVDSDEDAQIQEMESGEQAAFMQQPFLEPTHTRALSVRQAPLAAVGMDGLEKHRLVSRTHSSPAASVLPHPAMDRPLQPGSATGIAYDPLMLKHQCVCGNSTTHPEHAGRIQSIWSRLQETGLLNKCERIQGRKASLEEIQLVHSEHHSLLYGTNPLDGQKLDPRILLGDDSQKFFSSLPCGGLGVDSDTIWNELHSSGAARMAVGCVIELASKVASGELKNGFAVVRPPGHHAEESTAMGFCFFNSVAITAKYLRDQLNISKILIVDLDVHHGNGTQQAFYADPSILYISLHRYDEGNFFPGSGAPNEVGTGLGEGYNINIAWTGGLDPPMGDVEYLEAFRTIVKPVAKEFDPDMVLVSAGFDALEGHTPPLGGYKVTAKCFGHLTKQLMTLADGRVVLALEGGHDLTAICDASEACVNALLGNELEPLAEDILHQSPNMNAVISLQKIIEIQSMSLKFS
smiles,measurement,setting,value
"CC(=O)Nc1ccc(C(=O)Nc2ccc(F)cc2N)cc1 [Compound 1, 4-acetamido-N-(2-amino-4-fluorophenyl)benzamide]",effect on amphetamine-induced hyperactivity,dopaminergic signaling,potentiates
same,IC50,HDAC9,> 33 µM
same,better brain exposure in comparison to Repligen 136 as measured by Cmax,[1]; dose normalized,30 times
same,better brain exposure in comparison to Repligen 136 measured by AUC,[1]; dose normalized,120 times
same,AUC Brain,[1]; [4],12.77 µmol·h/L
same,Cmax Brain,[1]; [4],3.80 µmol/L
same,concentration in the brain over time,[1]; [4],still present in the brain after 8 hours
same,half-life,"[1]; brain, read-out: T1/2 Brain (converted)",124 min
same,half-life,"[1]; plasma, read-out: T1/2 Plasma (converted)",136 min
same,better plasma exposure as measured by AUC than Repligen 136,[1]; plasma,30 times
same,IC50,HDAC5,> 33 µM
same,Ki,HDAC2,~6.3 µM
same,koff,HDAC2,0.000867 s⁻¹
same,Ki,HDAC2; HDAC2,6.3 µM
same,Kon,HDAC2; HDAC2,"0.0082 min^−1, uM^−1 and ~0.0082 min^−1, uM^−1"
same,koff,HDAC2; HDAC2,0.000867 s⁻¹
same,type of binding to HDAC2 (words),HDAC2; HDAC2,fast off inhibitor
same,type of binding to HDAC2 (words),"HDAC2; HDAC2, listed as compound 1",slow on/fast off rates
same,T1/2,HDAC2; HDAC2 residence,13 min
same,glucolipotoxicity-induced ROS formation,INS-1E cells [2],reduces glucolipotoxicity-induced ROS formation
same,Atf4 transcription factor induction,INS-1E cells [3],did not affect Atf4 transcription factor induction
same,levels of the ER chaperone Bip mRNA,INS-1E cells [3],did not change
same,splicing of Xbp1 to Xbp1s,INS-1E cells [3],did not affect splicing
same,ATF4-mediated induction of Chop,INS-1E cells [3]; 9 hrs,decreased
same,ATF4-mediated induction of Atf3,INS-1E cells [3]; 24 hrs,decreased
same,CHOP mRNA and protein induction,INS-1E cells [3]; 24 hrs,completely reversed
same,phosphorylation of JNK (pJNK/tJNK),INS-1E cells [3]; 24 hrs,inhibited phosphorylation of JNK
same,IC50,HDAC7,> 33 µM
same,glucolipotoxicity-induced apoptosis in rat islets,Rat islets,decreases glucolipotoxicity-induced apoptosis in rat islets
